Source: patent US20250032457A1, “METHODS OF TREATING ANDROGENIC ALOPECIA AND/OR SKIN CONDITIONS” (priority 2020, published 2025)

System: scalp of a human subject (hairline recession, hair loss and thinning)
Experiment: Topical administration to the scalp of a human subject with hairline recession, hair loss and thinning
Details: 2% miconazole nitrate formulation, twice per day, observed after 3 months, one human subject, FIG. 2 vs FIG. 1
From the text: Hairline recession, hair thinning, and hair loss were observed prior to administration.

`Clc1ccc(COC(Cn2ccnc2)c2ccc(Cl)cc2Cl)c(Cl)c1` (centres unmarked) [miconazole] was tested, and the hairline recession (topical on scalp) was “reversal of hairline recession” and the “hair growth on the scalp” value was “promotion of hair growth elsewhere on the scalp”.
